Data set [1] deals with JAK3 (Homo sapiens (Human), UniProt P52333). Nature of the data set: JAK kinase assay (HTRF), JAK3. The data set is classed as biochemical. As to conditions: catalytic domain, ATP at Km (2 μM). A digest of the protocol: (§1)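 Catalytic-domain human kinases, GST-tagged TYK2 (aa 871-1187) and His-tagged JAK3, phosphorylate 1 μM TK Substrate-Biotin for 20-30 min at RT in 50 mM Hepes pH 7.0, 5 mM MgCl2, ATP at Km (TYK2 13 μM with 50 nM SEB; JAK3 2 μM). Phosphorylation detected by HTRF.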
JAK3, sequence (P52333 822-1111): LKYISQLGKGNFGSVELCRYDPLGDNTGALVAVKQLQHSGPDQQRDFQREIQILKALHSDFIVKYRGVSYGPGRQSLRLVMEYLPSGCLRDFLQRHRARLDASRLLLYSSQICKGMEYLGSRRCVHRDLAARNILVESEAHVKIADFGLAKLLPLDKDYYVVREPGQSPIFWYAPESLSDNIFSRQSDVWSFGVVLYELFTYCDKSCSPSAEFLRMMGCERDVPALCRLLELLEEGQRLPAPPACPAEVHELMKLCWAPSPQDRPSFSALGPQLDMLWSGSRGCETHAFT

Data set [2] deals with JAK1 (Homo sapiens (Human), UniProt P23458). The data set is described as follows: JAK kinase assay (HTRF), JAK1. The format is biochemical. As to conditions: catalytic domain, ATP at Km (7 μM). A digest of the protocol:
(§2)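 Catalytic-domain human JAK1 (GST-tagged, aa 850-1154) or His-tagged JAK2, baculovirus-expressed, phosphorylated 1 µM biotinylated TK peptide at Km ATP (JAK1 7 µM, 10 mM MgCl2, 50 nM SEB; JAK2 4 µM, 5 mM MgCl2) in pH 7.0 Hepes, 20-30 min RT. EDTA stop; overnight streptavidin-XL665/cryptate HTRF read.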
A general note: TR-FRET usually uses a lanthanide donor and a delayed reading to cut background.

Data set [3] addresses TYK2 (Homo sapiens (Human), UniProt P29597). Nature of the data set: JAK kinase assay (HTRF), TYK2. To be noted: catalytic domain, ATP at Km (13 μM). The data set is classed as biochemical. A digest of the protocol:
as §1

Data set [4] is described as follows: in vitro metabolic stability in human liver microsomes. The data set is classed as in vitro ADME. To be noted: human, liver microsomes, 0.5 μM compound, 0.5 mg/mL microsomes, NADPH, 40 min, 37° C.; read-out: Human liver microsome Clapp (apparent intrinsic clearance). A digest of the protocol:
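Compounds at 0.5 μM incubated in duplicate with human liver microsomes (0.5 mg/mL), phosphate buffer and NADPH at 37 °C for 40 min, sampled at 0, 5, 10, 20, 40 min into cold acetonitrile. LC-TOF-MS depletion gave elimination rate constant, from which apparent intrinsic clearance (Clapp) was calculated.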
(In general: Liver microsomes are a subcellular fraction often used to study metabolism.)

In data set [5] the target is JAK2 (Homo sapiens (Human), UniProt O60674). Nature of the data set: JAK kinase assay (HTRF), JAK2. The format is biochemical. As to conditions: catalytic domain, ATP at Km (4 μM). The method in brief: as §2
JAK2, sequence (O60674 849-1124): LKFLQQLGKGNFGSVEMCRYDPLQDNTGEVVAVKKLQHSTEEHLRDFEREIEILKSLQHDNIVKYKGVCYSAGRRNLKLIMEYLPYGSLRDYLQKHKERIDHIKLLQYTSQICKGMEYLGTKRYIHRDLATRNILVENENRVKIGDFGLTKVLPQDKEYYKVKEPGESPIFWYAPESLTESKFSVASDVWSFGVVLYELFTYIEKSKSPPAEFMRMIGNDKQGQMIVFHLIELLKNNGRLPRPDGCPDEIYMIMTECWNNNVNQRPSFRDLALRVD

Bounds are passed on as bounds.

TYK2, sequence (P29597 871-1187): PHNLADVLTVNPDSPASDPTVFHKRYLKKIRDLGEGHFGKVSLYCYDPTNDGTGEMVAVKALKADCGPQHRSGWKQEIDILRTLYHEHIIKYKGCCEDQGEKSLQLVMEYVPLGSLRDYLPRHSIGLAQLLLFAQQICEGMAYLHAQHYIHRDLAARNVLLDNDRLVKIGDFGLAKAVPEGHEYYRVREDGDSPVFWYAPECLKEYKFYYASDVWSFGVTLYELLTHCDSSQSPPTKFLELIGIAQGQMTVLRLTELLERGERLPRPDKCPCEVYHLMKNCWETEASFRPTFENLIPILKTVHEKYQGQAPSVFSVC
JAK1, sequence (P23458 850-1154): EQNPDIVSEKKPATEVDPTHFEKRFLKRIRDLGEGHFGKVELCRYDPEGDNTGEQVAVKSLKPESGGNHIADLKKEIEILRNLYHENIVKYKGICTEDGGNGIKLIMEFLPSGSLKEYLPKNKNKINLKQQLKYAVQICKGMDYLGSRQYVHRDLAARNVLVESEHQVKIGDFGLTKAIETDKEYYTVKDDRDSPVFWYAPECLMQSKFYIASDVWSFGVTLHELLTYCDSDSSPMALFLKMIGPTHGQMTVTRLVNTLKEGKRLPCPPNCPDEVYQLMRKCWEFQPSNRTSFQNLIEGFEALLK

As for `Cc1cc([C@H](O)CNC(=O)[C@H]2CCN(c3ncnc4[nH]ccc34)CC23CC3)ncc1F` [Example 44, (8S)-N-[(2R)-2-(5-fluoro-4-methyl-2-pyridyl)-2-hydroxy-ethyl]-5-(7H-pyrrolo[2,3-d]pyrimidin-4-yl)-5-azaspiro[2.5]octane-8-carboxamide], the EC50 (commonly the concentration at which the effect is half-maximal) in data set [1] was determined as 68.5 nM; in data set [2], 3.1 nM; in data set [3], 63.2 nM; in data set [5] it was 15.8 nM. The CLint scaled at 0.5 μM in data set [4] was greater than 200 mL/min/kg.

With `C[C@H](NC(=O)[C@H]1CCN(c2ncnc3[nH]ccc23)CC12CC2)[C@H](O)c1ccc(F)cc1` [Example 45, (8S)-N-[(1S,2R)-2-(4-fluorophenyl)-2-hydroxy-1-methyl-ethyl]-5-(7H-pyrrolo[2,3-d]pyrimidin-4-yl)-5-azaspiro[2.5]octane-8-carboxamide], the EC50 stood at 15.7 nM in data set [1], 3.1 nM in data set [2], 37.9 nM in data set [3] and 4.6 nM in data set [5]. Also, in data set [4], the CLint scaled at 0.5 μM is greater than 200 mL/min/kg.

Take `C[C@H](NC(=O)[C@H]1CCN(c2ncnc3[nH]ccc23)CC12CC2)c1ccc(C#N)cn1` [Example 48, (8S)-N-[(1S)-1-(5-cyano-2-pyridyl)ethyl]-5-(7H-pyrrolo[2,3-d]pyrimidin-4-yl)-5-azaspiro[2.5]octane-8-carboxamide]: the EC50 in data set [1] came to 40.3 nM; in data set [2], 3.2 nM; in data set [3] it was 128 nM; in data set [5], 10.2 nM. Moreover, in data set [4], the CLint scaled at 0.5 μM is 48 mL/min/kg.

Turning to `O=C(NCC1(O)CCCC1)[C@H]1CCN(c2ncnc3[nH]ccc23)CC12CC2` [Example 49, (8S)-N-[(1-hydroxycyclopentyl)methyl]-5-(7H-pyrrolo[2,3-d]pyrimidin-4-yl)-5-azaspiro[2.5]octane-8-carboxamide], the 50% effective concentration (EC50) in data set [1] is 26.1 nM; in data set [2] it was 3.4 nM; in data set [3], 43.4 nM; in data set [5], 15.1 nM. For the same compound, the CLint scaled at 0.5 μM in data set [4] turned out to be 35 mL/min/kg.

For `O=C(N[C@@H](CO)[C@H](O)c1ccc(F)cc1)[C@H]1CCN(c2ncnc3[nH]ccc23)CC12CC2` [Example 50, (8S)-N-[(1S,2R)-2-(4-fluorophenyl)-2-hydroxy-1-(hydroxymethyl)ethyl]-5-(7H-pyrrolo[2,3-d]pyrimidin-4-yl)-5-azaspiro[2.5]octane-8-carboxamide], the EC50 was determined as 22.7 nM in data set [1], 3.5 nM in data set [2], 53.2 nM in data set [3] and 7 nM in data set [5]. Moreover, the CLint scaled at 0.5 μM in data set [4] is 109 mL/min/kg.

Take `O=C(NC[C@@H](O)c1ccccc1)[C@H]1CCN(c2ncnc3[nH]ccc23)CC12CC2` [Example 51, (8S)-N-[(2S)-2-hydroxy-2-phenyl-ethyl]-5-(7H-pyrrolo[2,3-d]pyrimidin-4-yl)-5-azaspiro[2.5]octane-8-carboxamide]: the EC50 was 49.2 nM in data set [1], 3.5 nM in data set [2], 40.5 nM in data set [3] and 11.3 nM in data set [5]. The CLint scaled at 0.5 μM in data set [4] is greater than 200 mL/min/kg.

For `O=C(NCC1(CO)CCCC1)[C@H]1CCN(c2ncnc3[nH]ccc23)CC12CC2` [Example 52, (8S)-N-[[1-(hydroxymethyl)cyclopentyl]methyl]-5-(7H-pyrrolo[2,3-d]pyrimidin-4-yl)-5-azaspiro[2.5]octane-8-carboxamide], the EC50 worked out at 22.8 nM in data set [1], 3.6 nM in data set [2], 38 nM in data set [3] and 10.2 nM in data set [5]. Also, in data set [4], the CLint scaled at 0.5 μM is 118 mL/min/kg.

Take `Cc1cc([C@H](CO)NC(=O)[C@H]2CCN(c3ncnc4[nH]ccc34)CC23CC3)ccc1C#N` [Example 54, (8S)-N-[(1R)-1-(4-cyano-3-methyl-phenyl)-2-hydroxy-ethyl]-5-(7H-pyrrolo[2,3-d]pyrimidin-4-yl)-5-azaspiro[2.5]octane-8-carboxamide]: the EC50 in data set [1] stood at 33 nM; in data set [2], 3.6 nM; in data set [3], 135 nM; in data set [5], 13.5 nM. Besides, the CLint scaled at 0.5 μM in data set [4] was 142 mL/min/kg.

As for `O=C(NCC1CC(F)(F)C1)C1CCN(c2ncnc3[nH]ccc23)CC12CC2` (stereo not drawn) [Example 56, N-[(3,3-difluorocyclobutyl)methyl]-5-(7H-pyrrolo[2,3-d]pyrimidin-4-yl)-5-azaspiro[2.5]octane-8-carboxamide], the EC50 in data set [1] is 18.1 nM; in data set [2], 3.9 nM; in data set [3], 170 nM; in data set [5] it was 8.3 nM. Moreover, the CLint scaled at 0.5 μM in data set [4] came to 63 mL/min/kg.

Turning to `C[C@@](CO)(NC(=O)[C@H]1CCN(c2ncnc3[nH]ccc23)CC12CC2)c1ccc(C#N)cn1` [Example 57, (8S)-N-[(1R)-1-(5-cyano-2-pyridyl)-2-hydroxy-1-methyl-ethyl]-5-(7H-pyrrolo[2,3-d]pyrimidin-4-yl)-5-azaspiro[2.5]octane-8-carboxamide], the EC50 is 21.3 nM in data set [1], 4.1 nM in data set [2], 193 nM in data set [3] and 9 nM in data set [5]. The CLint scaled at 0.5 μM in data set [4] came out at 39 mL/min/kg.

Turning to `O=C(NCC1(CO)CCCC1)C1CCN(c2ncnc3[nH]ccc23)CC12CC2` (stereo not drawn) [Example 58, N-[[1-(hydroxymethyl)cyclopentyl]methyl]-5-(7H-pyrrolo[2,3-d]pyrimidin-4-yl)-5-azaspiro[2.5]octane-8-carboxamide], the EC50 in data set [1] turned out to be 30.3 nM; in data set [2], 4.1 nM; in data set [3], 142 nM; in data set [5], 13 nM. Moreover, the CLint scaled at 0.5 μM in data set [4] amounted to 143 mL/min/kg.

In the case of `N#CC1CC(CNC(=O)C2CCN(c3ncnc4[nH]ccc34)CC23CC3)C1` (stereo not drawn) [Example 59, N-[(3-cyanocyclobutyl)methyl]-5-(7H-pyrrolo[2,3-d]pyrimidin-4-yl)-5-azaspiro[2.5]octane-8-carboxamide], the half-maximal effective concentration (EC50) in data set [1] came to 24.5 nM; in data set [2], 4.2 nM; in data set [3] it was 322 nM; in data set [5], 12.1 nM. In addition, the CLint scaled at 0.5 μM in data set [4] is 28 mL/min/kg.

Regarding `O=C(NCC1CC(F)(F)C1)[C@H]1CCN(c2ncnc3[nH]ccc23)CC12CC2` [Example 62, (8S)-N-[(3,3-difluorocyclobutyl)methyl]-5-(7H-pyrrolo[2,3-d]pyrimidin-4-yl)-5-azaspiro[2.5]octane-8-carboxamide], the concentration for a half-maximal effect (EC50) in data set [1] was 15.7 nM; in data set [2], 4.5 nM; in data set [3], 47.5 nM; in data set [5], 7 nM. Further, the CLint scaled at 0.5 μM in data set [4] was 48 mL/min/kg.

As for `O=C(NC[C@@H](O)c1ccccc1)C1CCN(c2ncnc3[nH]ccc23)CC12CC2` (stereo partly drawn) [Example 63, N-[(2S)-2-hydroxy-2-phenyl-ethyl]-5-(7H-pyrrolo[2,3-d]pyrimidin-4-yl)-5-azaspiro[2.5]octane-8-carboxamide], the 50% effective concentration (EC50) in data set [1] was 58.5 nM; in data set [2] it was 4.5 nM; in data set [3] it was 147 nM; in data set [5], 15.9 nM. Besides, in data set [4], the CLint scaled at 0.5 μM is greater than 200 mL/min/kg.

Regarding `Cc1ccc([C@H](O)CNC(=O)[C@H]2CCN(c3ncnc4[nH]ccc34)CC23CC3)cc1` [Example 64, (8S)-N-[(2S)-2-hydroxy-2-(p-tolyl)ethyl]-5-(7H-pyrrolo[2,3-d]pyrimidin-4-yl)-5-azaspiro[2.5]octane-8-carboxamide], the EC50 in data set [1] turned out to be 28.5 nM; in data set [2], 4.5 nM; in data set [3], 90.9 nM; in data set [5] it was 6.7 nM. In addition, the CLint scaled at 0.5 μM in data set [4] is greater than 200 mL/min/kg.

`O=C(NCC1(O)CCC1)[C@H]1CCN(c2ncnc3[nH]ccc23)CC12CC2` [Example 68, (8S)-N-[(1-hydroxycyclobutyl)methyl]-5-(7H-pyrrolo[2,3-d]pyrimidin-4-yl)-5-azaspiro[2.5]octane-8-carboxamide]: the 50% effective concentration (EC50) stood at 29.6 nM in data set [1], 5.1 nM in data set [2], 78.1 nM in data set [3] and 11.8 nM in data set [5]. In data set [4], the CLint scaled at 0.5 μM worked out at 23 mL/min/kg.

As for `O=C(N[C@@H](CO)c1ccccc1)C1CCN(c2ncnc3[nH]ccc23)CC12CC2` (stereo partly drawn) [Example 69, N-[(1R)-2-hydroxy-1-phenyl-ethyl]-5-(7H-pyrrolo[2,3-d]pyrimidin-4-yl)-5-azaspiro[2.5]octane-8-carboxamide], the EC50 came to 29.1 nM in data set [1], 5.1 nM in data set [2], 298 nM in data set [3] and 12 nM in data set [5]. Moreover, the CLint scaled at 0.5 μM in data set [4] came to 44 mL/min/kg.

On to `O=C(NCC1(O)CCCCC1)[C@H]1CCN(c2ncnc3[nH]ccc23)CC12CC2` [Example 74, (8S)-N-[(1-hydroxycyclohexyl)methyl]-5-(7H-pyrrolo[2,3-d]pyrimidin-4-yl)-5-azaspiro[2.5]octane-8-carboxamide], for which the concentration giving a half-maximal response (EC50) worked out at 23.2 nM in data set [1], 6.1 nM in data set [2], 55.7 nM in data set [3] and 15.3 nM in data set [5]. Also, the CLint scaled at 0.5 μM in data set [4] was determined as 37 mL/min/kg.

Source of the values: patent publication US10799507B2, “5-(7H-pyrrolo[2,3-d]pyrimidin-4-yl)-5-azaspiro[2.5]octane-8-carboxylic acid derivatives as novel JAK kinase inhibitors” (LEO Pharma A/S, priority 2017, dated 2020).
